# Assay results from PubChem BioAssay (NCI).
#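 The compound was tested at five concentrations on cells cultured in 96-well plates, with a 48-hour exposure period. The concentration for 50% growth inhibition is given as GI50. At the TGI there is no net growth.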
# Key:
# Assay in all cases: NCI tumour cell line growth inhibition, 48 h
# 786-0 renal = system: 786-0 renal
# A498 renal = system: A498 renal
# A549 NSCLC = system: A549 NSCLC
# ACHN renal = system: ACHN renal
# BT-549 breast = system: BT-549 breast
# CAKI-1 renal = system: CAKI-1 renal
# CCRF-CEM leukemia = system: CCRF-CEM leukemia
# COLO 205 colon = system: COLO 205 colon
# DU-145 prostate = system: DU-145 prostate
# HCC-2998 colon = system: HCC-2998 colon
# HCT-116 colon = system: HCT-116 colon
# HCT-15 colon = system: HCT-15 colon
# HL-60(TB) leukemia = system: HL-60(TB) leukemia
# HOP-62 NSCLC = system: HOP-62 NSCLC
# HOP-92 NSCLC = system: HOP-92 NSCLC
# HS 578T breast = system: HS 578T breast
# HT29 colon = system: HT29 colon
# IGROV1 ovarian = system: IGROV1 ovarian
# K-562 leukemia = system: K-562 leukemia
# KM12 colon = system: KM12 colon
# LOX IMVI melanoma = system: LOX IMVI melanoma
# M14 melanoma = system: M14 melanoma
# MALME-3M melanoma = system: MALME-3M melanoma
# MCF7 breast = system: MCF7 breast
# MDA-MB-231 breast = system: MDA-MB-231 breast
# MDA-MB-435 = system: MDA-MB-435
# MOLT-4 leukemia = system: MOLT-4 leukemia
# NCI-H226 lung = system: NCI-H226 lung
# NCI-H23 lung = system: NCI-H23 lung
# NCI-H460 lung = system: NCI-H460 lung
# NCI-H522 lung = system: NCI-H522 lung
# NCI/ADR-RES ovarian = system: NCI/ADR-RES ovarian
# OVCAR-3 ovarian = system: OVCAR-3 ovarian
# OVCAR-4 ovarian = system: OVCAR-4 ovarian
# OVCAR-5 ovarian = system: OVCAR-5 ovarian
# OVCAR-8 ovarian = system: OVCAR-8 ovarian
# PC-3 prostate = system: PC-3 prostate
# RPMI-8226 leukemia = system: RPMI-8226 leukemia
# RXF 393 renal = system: RXF 393 renal
# SF-268 CNS = system: SF-268 CNS
# SF-295 CNS = system: SF-295 CNS
# SF-539 CNS = system: SF-539 CNS
# SK-MEL-2 melanoma = system: SK-MEL-2 melanoma
# SK-MEL-28 melanoma = system: SK-MEL-28 melanoma
# SK-MEL-5 melanoma = system: SK-MEL-5 melanoma
# SK-OV-3 ovarian = system: SK-OV-3 ovarian
# SN12C renal = system: SN12C renal
# SNB-19 CNS = system: SNB-19 CNS
# SNB-75 CNS = system: SNB-75 CNS
# SR leukemia = system: SR leukemia
# SW-620 colon = system: SW-620 colon
# T-47D breast = system: T-47D breast
# TK-10 renal = system: TK-10 renal
# U251 CNS = system: U251 CNS
# UACC-257 melanoma = system: UACC-257 melanoma
# UACC-62 melanoma = system: UACC-62 melanoma
# UO-31 renal = system: UO-31 renal
smiles,measurement,setting,value
Cn1c(=O)c(Oc2ccc(F)cc2F)cc2cnc(N[C@@H]3CCOC3)nc21,GI50,786-0 renal,> 25 µM
same,TGI,786-0 renal,> 25 µM
same,GI50,A498 renal,> 20.4 µM
same,TGI,A498 renal,> 25 µM
same,GI50,A549 NSCLC,> 25 µM
same,TGI,A549 NSCLC,> 25 µM
same,GI50,ACHN renal,> 25 µM
same,TGI,ACHN renal,> 25 µM
same,GI50,BT-549 breast,> 25 µM
same,TGI,BT-549 breast,> 25 µM
same,GI50,CAKI-1 renal,> 25 µM
same,TGI,CAKI-1 renal,> 25 µM
same,GI50,CCRF-CEM leukemia,> 25 µM
same,TGI,CCRF-CEM leukemia,> 25 µM
same,GI50,COLO 205 colon,> 25 µM
same,TGI,COLO 205 colon,> 25 µM
same,GI50,DU-145 prostate,> 25 µM
same,TGI,DU-145 prostate,> 25 µM
same,GI50,HCC-2998 colon,> 25 µM
same,TGI,HCC-2998 colon,> 25 µM
same,GI50,HCT-116 colon,> 25 µM
same,TGI,HCT-116 colon,> 25 µM
same,GI50,HCT-15 colon,> 25 µM
same,TGI,HCT-15 colon,> 25 µM
same,GI50,HL-60(TB) leukemia,> 25 µM
same,TGI,HL-60(TB) leukemia,> 25 µM
same,GI50,HOP-62 NSCLC,> 25 µM
same,TGI,HOP-62 NSCLC,> 25 µM
same,GI50,HOP-92 NSCLC,8.69 µM
same,TGI,HOP-92 NSCLC,> 25 µM
same,GI50,HS 578T breast,> 25 µM
same,TGI,HS 578T breast,> 25 µM
same,GI50,HT29 colon,> 25 µM
same,TGI,HT29 colon,> 25 µM
same,GI50,IGROV1 ovarian,> 25 µM
same,TGI,IGROV1 ovarian,> 25 µM
same,GI50,K-562 leukemia,> 25 µM
same,TGI,K-562 leukemia,> 25 µM
same,GI50,KM12 colon,> 25 µM
same,TGI,KM12 colon,> 25 µM
same,GI50,LOX IMVI melanoma,> 25 µM
same,TGI,LOX IMVI melanoma,> 25 µM
same,GI50,M14 melanoma,> 25 µM
same,TGI,M14 melanoma,> 25 µM
same,GI50,MALME-3M melanoma,> 25 µM
same,TGI,MALME-3M melanoma,> 25 µM
same,GI50,MCF7 breast,> 25 µM
same,TGI,MCF7 breast,> 25 µM
same,GI50,MDA-MB-231 breast,> 25 µM
same,TGI,MDA-MB-231 breast,> 25 µM
same,GI50,MDA-MB-435,> 25 µM
same,TGI,MDA-MB-435,> 25 µM
same,GI50,MOLT-4 leukemia,> 25 µM
same,TGI,MOLT-4 leukemia,> 25 µM
same,GI50,NCI-H226 lung,> 25 µM
same,TGI,NCI-H226 lung,> 25 µM
same,GI50,NCI-H23 lung,> 25 µM
same,TGI,NCI-H23 lung,> 25 µM
same,GI50,NCI-H460 lung,> 25 µM
same,TGI,NCI-H460 lung,> 25 µM
same,GI50,NCI-H522 lung,> 25 µM
same,TGI,NCI-H522 lung,> 25 µM
same,GI50,NCI/ADR-RES ovarian,> 25 µM
same,TGI,NCI/ADR-RES ovarian,> 25 µM
same,GI50,OVCAR-3 ovarian,> 25 µM
same,TGI,OVCAR-3 ovarian,> 25 µM
same,GI50,OVCAR-4 ovarian,> 25 µM
same,TGI,OVCAR-4 ovarian,> 25 µM
same,GI50,OVCAR-5 ovarian,> 25 µM
same,TGI,OVCAR-5 ovarian,> 25 µM
same,GI50,OVCAR-8 ovarian,> 25 µM
same,TGI,OVCAR-8 ovarian,> 25 µM
same,GI50,PC-3 prostate,> 25 µM
same,TGI,PC-3 prostate,> 25 µM
same,GI50,RPMI-8226 leukemia,> 25 µM
same,TGI,RPMI-8226 leukemia,> 25 µM
same,GI50,RXF 393 renal,> 25 µM
same,TGI,RXF 393 renal,> 25 µM
same,GI50,SF-268 CNS,> 25 µM
same,TGI,SF-268 CNS,> 25 µM
same,GI50,SF-295 CNS,> 25 µM
same,TGI,SF-295 CNS,> 25 µM
same,GI50,SF-539 CNS,> 25 µM
same,TGI,SF-539 CNS,> 25 µM
same,GI50,SK-MEL-2 melanoma,> 25 µM
same,TGI,SK-MEL-2 melanoma,> 25 µM
same,GI50,SK-MEL-28 melanoma,> 25 µM
same,TGI,SK-MEL-28 melanoma,> 25 µM
same,GI50,SK-MEL-5 melanoma,> 25 µM
same,TGI,SK-MEL-5 melanoma,> 25 µM
same,GI50,SK-OV-3 ovarian,> 25 µM
same,TGI,SK-OV-3 ovarian,> 25 µM
same,GI50,SN12C renal,> 25 µM
same,TGI,SN12C renal,> 25 µM
same,GI50,SNB-19 CNS,> 25 µM
same,TGI,SNB-19 CNS,> 25 µM
same,GI50,SNB-75 CNS,> 25 µM
same,TGI,SNB-75 CNS,> 25 µM
same,GI50,SR leukemia,> 25 µM
same,TGI,SR leukemia,> 25 µM
same,GI50,SW-620 colon,> 25 µM
same,TGI,SW-620 colon,> 25 µM
same,GI50,T-47D breast,> 25 µM
same,TGI,T-47D breast,> 25 µM
same,GI50,TK-10 renal,> 25 µM
same,TGI,TK-10 renal,> 25 µM
same,GI50,U251 CNS,> 25 µM
same,TGI,U251 CNS,> 25 µM
same,GI50,UACC-257 melanoma,> 25 µM
same,TGI,UACC-257 melanoma,> 25 µM
same,GI50,UACC-62 melanoma,> 25 µM
same,TGI,UACC-62 melanoma,> 25 µM
same,GI50,UO-31 renal,> 11 µM
same,TGI,UO-31 renal,> 16.2 µM
COC1C=COC2(C)Oc3c(C)c(O)c4c(O)c(c(C5SCCS5)c(O)c4c3C2=O)NC(=O)/C(C)=C\C=CC(C)C(O)C(C)C(O)C(C)C(OC(C)=O)C1C (centres undefined),TGI,786-0 renal,48.4 µM
same,TGI,A498 renal,26.5 µM
same,TGI,A549 NSCLC,22.4 µM
same,TGI,ACHN renal,10.7 µM
same,TGI,BT-549 breast,16.2 µM
same,TGI,CAKI-1 renal,22.8 µM
same,TGI,CCRF-CEM leukemia,5.33 µM
same,TGI,COLO 205 colon,6.79 µM
same,TGI,DU-145 prostate,13.1 µM
same,TGI,HCT-116 colon,48.7 µM
same,TGI,HCT-15 colon,21.8 µM
same,TGI,HL-60(TB) leukemia,12.5 µM
same,TGI,HOP-62 NSCLC,46 µM
same,TGI,HOP-92 NSCLC,26.1 µM
same,TGI,HS 578T breast,40.6 µM
same,TGI,HT29 colon,13 µM
same,TGI,IGROV1 ovarian,22.4 µM
same,TGI,KM12 colon,30.6 µM
same,TGI,LOX IMVI melanoma,4.57 µM
same,TGI,M14 melanoma,27.5 µM
same,TGI,MALME-3M melanoma,26.7 µM
same,TGI,MCF7 breast,24.2 µM
same,TGI,MDA-MB-231 breast,18.9 µM
same,TGI,MDA-MB-435,16.1 µM
same,TGI,MOLT-4 leukemia,4.43 µM
same,TGI,NCI-H226 lung,21.8 µM
same,TGI,NCI-H23 lung,18.4 µM
same,TGI,NCI-H460 lung,18 µM
same,TGI,NCI-H522 lung,24.2 µM
same,TGI,NCI/ADR-RES ovarian,34.6 µM
same,TGI,OVCAR-3 ovarian,20.4 µM
same,TGI,OVCAR-4 ovarian,20.5 µM
same,TGI,OVCAR-5 ovarian,27.8 µM
same,TGI,OVCAR-8 ovarian,26 µM
same,TGI,PC-3 prostate,20 µM
same,TGI,RPMI-8226 leukemia,8.58 µM
same,TGI,RXF 393 renal,24.1 µM
same,TGI,SF-268 CNS,32 µM
same,TGI,SF-295 CNS,17.6 µM
same,TGI,SF-539 CNS,20.9 µM
same,TGI,SK-MEL-2 melanoma,24.6 µM
same,TGI,SK-MEL-28 melanoma,20.8 µM
same,TGI,SK-MEL-5 melanoma,20.8 µM
same,TGI,SK-OV-3 ovarian,27.7 µM
same,TGI,SN12C renal,10.1 µM
same,TGI,SNB-19 CNS,17.7 µM
same,TGI,SNB-75 CNS,20.5 µM
same,TGI,SR leukemia,7.14 µM
same,TGI,SW-620 colon,20.1 µM
same,TGI,T-47D breast,11.7 µM
same,TGI,TK-10 renal,14.2 µM
same,TGI,U251 CNS,14.5 µM
same,TGI,UACC-257 melanoma,17.8 µM
same,TGI,UACC-62 melanoma,19.2 µM
same,TGI,UO-31 renal,26.7 µM
